Structures can show the parent of a compound that is named as a salt.
The compounds below were run against T1, human CGT (ceramide galactosyltransferase), CHO/CGT lysate (Homo sapiens, UniProt Q16880) (assay: CGT enzyme assay, RapidFire/MS/MS readout with 0.01% Tween added (Table 1 ranges with two asterisks **)). Conditions: CGT enzymatic assay; range with two asterisks (**): RapidFire/MS/MS method with 0.01% Tween added.
T1 construct: Full-length human CGT cDNA was cloned into the BamH1/Xho1 site of pcDNA3.1 (+); expressed in transfected cells; host or cells: Chinese hamster ovary (CHO) cells; lysate prepared with M-PER
T1 sequence (Q16880 21-541): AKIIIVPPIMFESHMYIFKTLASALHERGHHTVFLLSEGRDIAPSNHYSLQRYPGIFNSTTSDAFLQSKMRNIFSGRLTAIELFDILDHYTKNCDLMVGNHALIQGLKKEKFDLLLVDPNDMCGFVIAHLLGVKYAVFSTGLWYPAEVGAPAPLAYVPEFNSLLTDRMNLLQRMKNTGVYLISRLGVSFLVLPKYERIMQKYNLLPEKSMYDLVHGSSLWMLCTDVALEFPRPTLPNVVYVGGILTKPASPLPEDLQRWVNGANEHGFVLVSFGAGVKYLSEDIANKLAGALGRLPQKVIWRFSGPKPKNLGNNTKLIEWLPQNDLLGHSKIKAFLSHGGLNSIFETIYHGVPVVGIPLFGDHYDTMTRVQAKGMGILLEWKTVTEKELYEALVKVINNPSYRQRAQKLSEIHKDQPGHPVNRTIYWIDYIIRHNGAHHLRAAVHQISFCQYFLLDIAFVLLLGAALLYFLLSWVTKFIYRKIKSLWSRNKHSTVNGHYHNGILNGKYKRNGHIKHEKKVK
Assay type: biochemical
Procedure, shortened: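 Lysate (4 μg) of CHO cells transfected with full-length human CGT incubated 1 h at 37 °C with compound (0.001–50 μM) in pH 7.2 HEPES buffer with 10 μM C6-NBD-dihydro-ceramide, 17.5 μM UDP-galactose, Mg2+/Mn2+, CHAPS, BSA, 0.5% DMSO; ** set also contained 0.01% Tween 80. Product quantified by RapidFire/MS/MS, normalized to internal standard; IC50 from sigmoidal variable-slope fits.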

SMILES	IC50 [µM]
NC1CCN(C(=O)[C@H](NS(=O)(=O)c2ccc(COC3CCCCC3)s2)C(F)(F)c2ccc(-c3ccc(Cl)cc3)cc2)CC1 [Compound 165-1, (S)—N-(3-(4-aminopiperidin-1-yl)-1-(4′-chloro-[1,1′-biphenyl]-4-yl)-1,1-difluoro-3-oxopropan-2-yl)-5-((cyclohexyloxy)methyl)thiophene-2-sulfonamide trifluoroacetate]	30 to 100
O=C([C@H](NS(=O)(=O)c1ccc(OCC2CCCCC2)cc1)C(F)(F)c1ccc(-c2ccc(Cl)cc2)cc1)N1C[C@H]2CNC[C@H]2C1 [Compound 179-2, N—((S)-1-(4′-chloro-[1,1′-biphenyl]-4-yl)-1,1-difluoro-3-((3aR,6aS)-hexahydropyrrolo[3,4-c]pyrrol-2(1H)-yl)-3-oxopropan-2-yl)-4-(cyclohexylmethoxy)benzenesulfonamide trifluoroacetate]	30 to 100
O=C([C@H](NS(=O)(=O)c1ccc2cc(OC3CCCC3)ccc2c1)C(F)(F)c1ccc(-c2ccc(Cl)cc2)cc1)N1CC[C@@H]2CNC[C@@H]21 [Compound 192-2, N-((S)-1-(4′-chloro-[1,1′-biphenyl]-4-yl)-1,1-difluoro-3-((3aR,6aR)-hexahydropyrrolo[3,4-b]pyrrol-1(2H)-yl)-3-oxopropan-2-yl)-6-(cyclopentyloxy)naphthalene-2-sulfonamide]	10 to 30
O=C([C@H](NS(=O)(=O)c1ccc(OCC2CCCCC2)cc1)C(F)(F)c1ccc(-c2ccc(Cl)cc2)cc1)N1CC[C@H]2CNC[C@H]21 [Compound 195-4, N-((S)-1-(4′-chloro-[1,1′-biphenyl]-4-yl)-1,1-difluoro-3-((3aS,6aS)-hexahydropyrrolo[3,4-b]pyrrol-1(2H)-yl)-3-oxopropan-2-yl)-4-(cyclohexylmethoxy)benzenesulfonamide]	30 to 100
COc1cc(C(F)(F)[C@@H](NS(=O)(=O)c2ccc(OCC3CCCCC3)cc2)C(=O)N2C[C@H]3CNC[C@H]3C2)ccc1-c1ccc(Cl)cc1 [Compound 190-2, N-((S)-1-(4′-chloro-2-methoxy-[1,1′-biphenyl]-4-yl)-1,1-difluoro-3-((3aR,6aS)-hexahydropyrrolo[3,4-c]pyrrol-2(1H)-yl)-3-oxopropan-2-yl)-4-(cyclohexylmethoxy)benzenesulfonamide]	30 to 100
N[C@@H]1CCN(C(=O)[C@H](NS(=O)(=O)c2ccc3cc(OC4CCCC4)ccc3c2)C(F)(F)c2ccc(-c3ccc(Cl)cc3)cc2)C1 [Compound 149-2, N—((S)-3-((R)-3-aminopyrrolidin-1-yl)-1-(4′-chloro-[1,1′-biphenyl]-4-yl)-1,1-difluoro-3-oxopropan-2-yl)-6-(cyclopentyloxy) naphthalene-2-sulfonamide trifluoroacetate]	1 to 10
O=C([C@@H](NS(=O)(=O)c1ccc(OCC2CCCCC2)cc1)C(F)(F)c1ccc(-c2ccc(Cl)cc2)cc1)N1CC[C@@H]2CNC[C@@H]21 [Compound 195-3, N-((R)-1-(4′-chloro-[1,1′-biphenyl]-4-yl)-1,1-difluoro-3-((3aR,6aR)-hexahydropyrrolo[3,4-b]pyrrol-1(2H)-yl)-3-oxopropan-2-yl)-4-(cyclohexylmethoxy)benzenesulfonamide]	1 to 10
O=C([C@@H](NS(=O)(=O)c1ccc(OCC2CCCCC2)cc1)C(F)(F)c1ccc(-c2ccc(Cl)cc2)cc1)N1CC[C@H]2CNC[C@H]21 [Compound 195-1, N-((R)-1-(4′-chloro-[1,1′-biphenyl]-4-yl)-1,1-difluoro-3-((3aS,6aS)-hexahydropyrrolo[3,4-b]pyrrol-1(2H)-yl)-3-oxopropan-2-yl)-4-(cyclohexylmethoxy)benzenesulfonamide]	1 to 10
NC1CCN(C(=O)[C@@H](NS(=O)(=O)c2ccc(OCC3CCCCC3)cc2)C(F)(F)c2ccc(-c3ccc(Cl)cc3)cn2)CC1 [Compound 163-1, (R)—N-(3-(4-aminopiperidin-1-yl)-1-(5-(4-chlorophenyl)pyridin-2-yl)-1,1-difluoro-3-oxopropan-2-yl)-4-(cyclohexylmethoxy)benzenesulfonamide]	1 to 10
C=C(c1ccc(C(F)(F)[C@H](NS(=O)(=O)c2ccc3cc(OC4CCCC4)ccc3c2)C(=O)N2CCC(N)CC2)cc1)C(F)(F)F [Compound 166-1, (R)—N-(3-(4-aminopiperidin-1-yl)-1,1-difluoro-3-oxo-1-(4-(3,3,3-trifluoroprop-1-en-2-yl)phenyl)propan-2-yl)-6-(cyclopentyloxy)naphthalene-2-sulfonamide]	1 to 10
N[C@H]1CCN(C(=O)[C@H](NS(=O)(=O)c2ccc3cc(OC4CCCC4)ccc3c2)C(F)(F)c2ccc(-c3ccc(Cl)cc3)cc2)C[C@@H]1F [Compound 178-2, N—((S)-3-((3 S,4S)-4-amino-3-fluoropiperidin-1-yl)-1-(4′-chloro-[1,1′-biphenyl]-4-yl)-1,1-difluoro-3-oxopropan-2-yl)-6-(cyclopentyloxy) naphthalene-2-sulfonamide]	1 to 10
NC1CCN(C(=O)[C@@H](NS(=O)(=O)c2ccc3cc(OC4CCCC4)ccc3c2)C(F)(F)c2ccc(Cl)c(OC3CC3)c2)CC1 [Compound 168-1, (R)—N-(3-(4-aminopiperidin-1-yl)-1-(4-chloro-3-cyclopropoxyphenyl)-1,1-difluoro-3-oxopropan-2-yl)-6-(cyclopentyloxy)naphthalene-2-sulfonamide trifluoroacetate]	1 to 10
NC1CC2CCC(C1)N2C(=O)[C@@H](NS(=O)(=O)c1ccc(OCC2CCCCC2)cc1)C(F)(F)c1ccc(Cl)s1 (stereo partly drawn) [Compound 194-1, N-((2R)-3-(3-amino-8-azabicyclo[3.2.1]octan-8-yl)-1-(5-chlorothiophen-2-yl)-1,1-difluoro-3-oxopropan-2-yl)-4-(cyclohexylmethoxy)benzenesulfonamide]	1 to 10
NC1CC2CCC(C1)N2C(=O)[C@@H](NC(=O)C(=O)c1ccc2cc(OC3CCCC3)ccc2c1)C(F)(F)c1ccc2cc(Br)ccc2c1 (stereo partly drawn) [Compound 160-1, N-((2R)-3-(3-amino-8-azabicyclo[3.2.1]octan-8-yl)-1-(6-bromonaphthalen-2-yl)-1,1-difluoro-3-oxopropan-2-yl)-2-(6-(cyclopentyloxy)naphthalen-2-yl)-2-oxoacetamide trifluoroacetate]	10 to 30
CN(CCCN)C(=O)[C@@H](NS(=O)(=O)c1ccc2cc(OC3CCCC3)ccc2c1)C(F)(F)c1ccc(-c2ccc(Cl)cc2)cc1 [Compound 157-1, (R)—N-(3-aminopropyl)-3-(4′-chloro-[1,1′-biphenyl]-4-yl)-2-((6-(cyclopentyloxy)naphthalene)-2-sulfonamido)-3,3-difluoro-N-methylpropanamide]	1 to 10
CCCOc1cc(C(F)(F)[C@@H](NS(=O)(=O)c2ccc3cc(OC4CCCC4)ccc3c2)C(=O)N2CCC(N)CC2)ccc1Cl [Compound 169-2, (S)—N-(3-(4-aminopiperidin-1-yl)-1-(4-chloro-3-propoxyphenyl)-1,1-difluoro-3-oxopropan-2-yl)-6-(cyclopentyloxy) naphthalene-2-sulfonamide trifluoroacetate]	1 to 10
O=C([C@H](NS(=O)(=O)c1ccc(OCC2CCCCC2)cc1)C(F)(F)c1ccc(-c2ccc(Cl)cc2)cc1)N1CC[C@@H]2CNC[C@@H]21 [Compound 195-2, N-((S)-1-(4′-chloro-[1,1′-biphenyl]-4-yl)-1,1-difluoro-3-((3aR,6aR)-hexahydropyrrolo[3,4-b]pyrrol-1(2H)-yl)-3-oxopropan-2-yl)-4-(cyclohexylmethoxy)benzenesulfonamide]	30 to 100
NC1CCN(C(=O)[C@@H](NS(=O)(=O)c2ccc(OCC3CCCCC3)cc2)C(F)(F)c2cccc(-c3ccc(Cl)cc3)c2)CC1 [Compound 181-1, (R)—N-(3-(4-aminopiperidin-1-yl)-1-(4′-chloro-[1,1′-biphenyl]-3-yl)-1,1-difluoro-3-oxopropan-2-yl)-4-(cyclohexylmethoxy)benzenesulfonamide trifluoroacetate]	1 to 10
N[C@@H]1CC2CCC1N2C(=O)[C@@H](NS(=O)(=O)c1ccc2cc(OC3CCCC3)ccc2c1)C(F)(F)c1ccc(-c2ccc(Cl)cc2)cc1 (stereo partly drawn) [Compound 180-4]	1 to 10
CC(C)Oc1cc(C(F)(F)[C@@H](NS(=O)(=O)c2ccc3cc(OC4CCCC4)ccc3c2)C(=O)N2CCC(N)CC2)ccc1Cl [Compound 172-2, (S)—N-(3-(4-aminopiperidin-1-yl)-1-(4-chloro-3-isopropoxyphenyl)-1,1-difluoro-3-oxopropan-2-yl)-6-(cyclopentyloxy) naphthalene-2-sulfonamide trifluoroacetate]	10 to 30

Same assay, conditions: CGT enzyme assay, RapidFire/MS/MS method with 0.01% Tween added (range with two asterisks **)

SMILES	IC50 [µM]
COc1cc(C(F)(F)[C@@H](NS(=O)(=O)c2ccc(OCC3CCCCC3)cc2)C(=O)N2CCC(N)CC2)ccc1Br [Compound 145-2, (S)—N-(3-(4-aminopiperidin-1-yl)-1-(4-bromo-3-methoxyphenyl)-1,1-difluoro-3-oxopropan-2-yl)-4-(cyclohexylmethoxy) benzenesulfonamide trifluoroacetate]	30 to 100
